Source: ChEMBL document CHEMBL1201862, “PubChem BioAssay data set” (2004)
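Method: 48-hour compound exposure of cells in 96-well plates, five concentrations, linear interpolation of endpoints. The concentration for 50% growth inhibition is given as GI50.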 Activity calls are given as the source filed them. Rule as the data show it: active = GI50 up to about 1.1 µM and inactive = higher.

Experiments:
Assay in all cases: NCI tumour cell line growth inhibition, 48 h
SK-MEL-5 = test system: SK-MEL-5
HL-60 = test system: HL-60
UO-31 = test system: UO-31
RPMI-8226 = test system: RPMI-8226
SNB-75 = test system: SNB-75
HCT-15 = test system: HCT-15
SF-295 = test system: SF-295
DMS-114 = test system: DMS-114
NCI-H460 = test system: NCI-H460
KM-20L2 = test system: KM-20L2
SF-539 = test system: SF-539
KM12 = test system: KM12
SNB-78 = test system: SNB-78
UACC-257 = test system: UACC-257
DLD-1 = test system: DLD-1
LOX IMVI = test system: LOX IMVI
M19-MEL = test system: M19-MEL
COLO 205 = test system: COLO 205
SN12C = test system: SN12C
OVCAR-8 = test system: OVCAR-8

Row | SMILES | GI50 (SK-MEL-5) | GI50 (HL-60) | GI50 (UO-31) | GI50 (RPMI-8226) | GI50 (SNB-75) | GI50 (HCT-15) [µM] | GI50 (SF-295) | GI50 (DMS-114) | GI50 (NCI-H460) | GI50 (KM-20L2) | GI50 (SF-539) | GI50 (KM12) | GI50 (SNB-78) | GI50 (UACC-257) | GI50 (DLD-1) | GI50 (LOX IMVI) | GI50 (M19-MEL) | GI50 (COLO 205) | GI50 (SN12C) | GI50 (OVCAR-8)
1 | CC(C)C1=CC2=CC[C@@H]3[C@](C)(CCC[C@@]3(C)C(=O)O)[C@H]2CC1 [ABIETIC ACID] | 60.5 µM (inactive) | > 50.5 µM (inactive) | 43.7 µM (inactive) | > 46.6 µM (inactive) | 55.8 µM (inactive) | 43.4 | 37.8 µM (inactive) | 58.9 µM (inactive) | 47 µM (inactive) | 63.2 µM (inactive) | > 70.8 µM (inactive) | 37.8 µM (inactive) | 59.7 µM (inactive) | 56.1 µM (inactive) | > 67.9 µM (inactive) | 58.6 µM (inactive) | 59 µM (inactive) | 40.3 µM (inactive) | 62.4 µM (inactive) | > 56.9 µM (inactive)
2 | O=C1C=CC2OC(c3ccccc3)C(O)C2O1 (configuration not stated) | 7.33 µM (inactive) | 1.4 µM (inactive) | 10.2 µM (inactive) | 1.39 µM (inactive) | 10.4 µM (inactive) | 3.42 | 7.71 µM (inactive) | 4.57 µM (inactive) | 4.7 µM (inactive) | 5.98 µM (inactive) | 3.07 µM (inactive) | 6.76 µM (inactive) | 7.08 µM (inactive) | 6.31 µM (inactive) | 3.89 µM (inactive) | 1.95 µM (inactive) | 12 µM (inactive) | 2.58 µM (inactive) | 7.03 µM (inactive) | 3.62 µM (inactive)
3 | CCCOC(=O)CNC(=O)OC(C)(C)C | > 100 µM (inactive) | > 100 µM (inactive) | > 100 µM (inactive) | – | > 100 µM (inactive) | > 100 | > 100 µM (inactive) | > 100 µM (inactive) | > 100 µM (inactive) | > 100 µM (inactive) | > 100 µM (inactive) | > 100 µM (inactive) | > 100 µM (inactive) | > 100 µM (inactive) | > 100 µM (inactive) | > 100 µM (inactive) | > 100 µM (inactive) | > 100 µM (inactive) | – | > 100 µM (inactive)
4 | COc1ccc(C2C(=O)C(Cl)N2Nc2nc(C)cc(O)n2)cc1OC (configuration not stated) | 29.3 µM (inactive) | 13.9 µM (inactive) | 29.9 µM (inactive) | 19.1 µM (inactive) | 8.13 µM (inactive) | 20.2 | – | – | 26.8 µM (inactive) | 37 µM (inactive) | 24 µM (inactive) | 39.6 µM (inactive) | 21.1 µM (inactive) | 40.6 µM (inactive) | – | 18.1 µM (inactive) | 42.3 µM (inactive) | 51.2 µM (inactive) | 21.7 µM (inactive) | 26.3 µM (inactive)
5 | COC(=O)[C@@H](O)[C@](O)(CCC(C)C)C(=O)O[C@@H]1C(OC)=C[C@]23CCCN2CCc2cc4c(cc2[C@H]13)OCO4 | 1.48 µM (inactive) | 0.349 µM (active) | 1.5 µM (inactive) | 1.34 µM (inactive) | 1.62 µM (inactive) | 1.68 | 1.53 µM (inactive) | 0.265 µM (active) | 0.325 µM (active) | 1.5 µM (inactive) | 0.673 µM (active) | 1.26 µM (inactive) | 2.59 µM (inactive) | 1.82 µM (inactive) | 1 µM (active) | 0.562 µM (active) | 1.18 µM (inactive) | 1.29 µM (inactive) | 2.36 µM (inactive) | 1.88 µM (inactive)
6 | CCOC(=O)C1C(c2cc(OC)c(O)c(OC)c2)c2cc3c(cc2OC1(C)O)OCO3 (configuration not stated) | 36 µM (inactive) | > 100 µM (inactive) | 41.8 µM (inactive) | 71.1 µM (inactive) | 16.5 µM (inactive) | 46.6 | 35.2 µM (inactive) | – | 48.2 µM (inactive) | 64.9 µM (inactive) | > 100 µM (inactive) | – | 81.7 µM (inactive) | 61.9 µM (inactive) | 42.6 µM (inactive) | 93.1 µM (inactive) | 66.4 µM (inactive) | > 100 µM (inactive) | 88.5 µM (inactive) | > 100 µM (inactive)
7 | Cn1ncc2c(=O)[nH]c(-c3ccccc3)nc21 | > 100 µM (inactive) | > 100 µM (inactive) | > 100 µM (inactive) | > 100 µM (inactive) | > 100 µM (inactive) | > 100 | > 100 µM (inactive) | > 100 µM (inactive) | – | > 100 µM (inactive) | > 100 µM (inactive) | > 100 µM (inactive) | > 100 µM (inactive) | > 100 µM (inactive) | > 100 µM (inactive) | > 100 µM (inactive) | – | > 100 µM (inactive) | > 100 µM (inactive) | > 100 µM (inactive)
8 | CCOC(=O)c1c(NC(=S)NCc2ccccc2)sc2c1CCN(C)C2 | 45.1 µM (inactive) | 17.4 µM (inactive) | 64.4 µM (inactive) | 28.5 µM (inactive) | – | 68.1 | 57.3 µM (inactive) | – | 40.8 µM (inactive) | – | 69.2 µM (inactive) | 24.4 µM (inactive) | – | > 100 µM (inactive) | – | – | – | 46.1 µM (inactive) | 42.7 µM (inactive) | 82.2 µM (inactive)
9 | CC(=O)OC1C=C(C=O)C(O)(C=O)C2(C)CCCC(C)(C)C12 (configuration not stated) | 1.17 µM (inactive) | 0.249 µM (active) | 2.32 µM (inactive) | 0.519 µM (active) | 2.4 µM (inactive) | 0.6 | 3.07 µM (inactive) | 0.927 µM (active) | 1.64 µM (inactive) | 2.11 µM (inactive) | 2.4 µM (inactive) | 2.31 µM (inactive) | 2.67 µM (inactive) | 2 µM (inactive) | 1.05 µM (active) | 0.942 µM (active) | 1.23 µM (inactive) | 0.859 µM (active) | 2.52 µM (inactive) | 1.24 µM (inactive)
10 | CCCCCCCCC1=CCC(CN(C)C)C1=O (configuration not stated) | 20.1 µM (inactive) | 12 µM (inactive) | 17 µM (inactive) | 1.34 µM (inactive) | 17.7 µM (inactive) | 17.8 | > 42.1 µM (inactive) | 18.7 µM (inactive) | 16.3 µM (inactive) | 21.9 µM (inactive) | 19.7 µM (inactive) | 15.1 µM (inactive) | 23.8 µM (inactive) | 20.9 µM (inactive) | 18.8 µM (inactive) | 16.6 µM (inactive) | 17.8 µM (inactive) | 18.8 µM (inactive) | 17.1 µM (inactive) | 17.9 µM (inactive)
11 | Cc1cc2cccc(Cl)c2nc1C(=O)c1ccccc1 | > 100 µM (inactive) | – | > 100 µM (inactive) | > 100 µM (inactive) | 17.1 µM (inactive) | > 100 | 18.9 µM (inactive) | > 100 µM (inactive) | – | > 100 µM (inactive) | > 100 µM (inactive) | > 100 µM (inactive) | > 100 µM (inactive) | 18.2 µM (inactive) | > 100 µM (inactive) | 94.4 µM (inactive) | > 100 µM (inactive) | > 100 µM (inactive) | > 100 µM (inactive) | 46.3 µM (inactive)
12 | CSCSCC(CO)NC(=O)/C=C\c1c(C)[nH]c(=O)[nH]c1=O (configuration not stated) | 21.5 µM (inactive) | 9.51 µM (inactive) | 14.9 µM (inactive) | 51.5 µM (inactive) | 16.3 µM (inactive) | 17.9 | 76.6 µM (inactive) | 5.56 µM (inactive) | 12.2 µM (inactive) | 7.76 µM (inactive) | 32.9 µM (inactive) | 12.7 µM (inactive) | 34.4 µM (inactive) | 48.6 µM (inactive) | 11.6 µM (inactive) | 14.1 µM (inactive) | 9.75 µM (inactive) | 8.79 µM (inactive) | 8.15 µM (inactive) | 10 µM (inactive)
13 | NC(=O)C(=O)N/N=C1/c2ccccc2CC1C1(O)C(=O)Nc2c(Cl)cc(Cl)cc21 (configuration not stated) | > 100 µM (inactive) | > 100 µM (inactive) | > 100 µM (inactive) | > 100 µM (inactive) | 97.3 µM (inactive) | > 100 | > 100 µM (inactive) | > 100 µM (inactive) | > 100 µM (inactive) | > 100 µM (inactive) | > 100 µM (inactive) | > 100 µM (inactive) | > 100 µM (inactive) | > 100 µM (inactive) | > 100 µM (inactive) | 88.3 µM (inactive) | > 100 µM (inactive) | > 100 µM (inactive) | > 100 µM (inactive) | > 100 µM (inactive)
